Experimental findings from EP3760204A1, “MEDICAMENT FOR PREVENTION OR TREATMENT OF HUNTINGTON'S DISEASE” (Medizinische Universität Graz, priority 2019, dated 2021) are described below.

Experiment [1] deals with HepG2 cells. In words: pGFP-RFP-LC3 autophagic flux assay in transfected HepG2 cells. The settings on record: fed condition, 50µM, Figures 3C, 6C.
The test system of another experiment is TFEB. In words: LC3 II induction after TFEB knockdown (siTFEB) in HepG2 cells. Type of experiment: cell-based, human. As to conditions: 50µM, +/- chloroquine, Figure 9. On the procedure:
(§1) Western blot: Protein lysate was generated by homogenization (Magnalyzer, Roche) of tissue or cell pellet in homogenization buffer with protease and phosphatase inhibitors (Halt tablets, Invitrogen). After homogenization, lysates were sonicated 2x for 10" each. Lysates were then centrifuged for 10 min at 4°C and the supernatant was subjected to BCA protein estimation (Thermo Fisher). Equal amounts of lysate were loaded to self-made acrylamide gels. After separation, the protein was transferred to a PVDF membrane with semi-dry transfer.

Experiment [2] concerns HepG2 cells. In words: Autophagic flux assay (LC3 II Western blot, with or without chloroquine) in HepG2 cells. Type of experiment: cell-based, human. As to conditions: 50µM hyperforin vs ethanol vehicle, Figure 6A. On the procedure: as §1
In general terms: Immunoblotting shows a protein as a band on a membrane.

The subject of another experiment is alpha-1-antitrypsin. The experiment is described as follows: Pathological alpha-1-antitrypsin (Z-allele) accumulation in transfected HeLa cells. The settings on record: HeLa cells transfected with PXR/RXR and Z-allele of alpha-1-antitrypsin, 50µM, 24h; Figure 10. It counts as cell-based, human. On the procedure:
as §1

As to hyperforin, in the experiment with HepG2 cells [1], the “autophagic flux (GFP-RFP-LC3 dots)” value was “induced autophagic flux”. In addition, the “LC3 II in the presence of TFEB” value with TFEB (non-targeting control (NT) HepG2 cells) was “induces”. Moreover, the “LC3 II induction in siTFEB cells” value with TFEB (siTFEB HepG2 cells) is “blunted”. The “LC3 II protein” value in the experiment with HepG2 cells [2] is “induces”. In addition, the “pathological A1AT accumulation” value in the experiment on alpha-1-antitrypsin is reported as “robustly decreases”.
